In US5700838A, “Hydroxamic acid derivatives as metalloproteinase inhibitors” (British Biotech Pharmaceuticals Limited, priority 1992, dated 1997):
Values after ≈ are worked out from the molar mass of the structure shown. Where two headings read alike, the source gives them in different places.

Columns and labels:
stromelysin [1] = biological target: T1, stromelysin (Homo sapiens, UniProt P08254); test: biochemical
From the text: (§1) The casein was acetylated ^14 C casein prepared by the method of Cawston et al (ibid).

[2] = Blood concentration over time after oral gavage in rats, determined as collagenase inhibitory activity of extracts; details: for AUC (0-6 h) in number of IC50's × hours: oral gavage, male rats, Example 1: average of two results; for AUC(0-t) at 6 h / Tmax: rat, po
Experimental: (§2) The concentration over time of compounds of the invention in the blood of laboratory animals following administration of the test compounds was measured.
(§3) Test compounds were administered by gavage to 6 male rats (300 g) per treatment group. Blood samples were removed by tail venepuncture at 0.5, 1.0, 2.0, 6.0 and 24 hours post administration. 0.4 ml of blood was placed into 4.5 ml tubes containing 0.1 ml acid citrate dextrose (ACD) as anti-coagulant. For extraction, 3 ml methanol was added and the precipitated blood pelletted by centrifugation (30 min at 3000 rpm). A 2 ml aliquot of supernatant was removed and concentrated by lyophilisation. The extract was redissolved in 200 μl DMSO and a 10 μl aliquot assayed for collagenase inhibitory activity.

[3] = test system: TNF α release from U937 cells; test: Inhibition of PMA-stimulated TNF α release from U937 cells (ELISA); assay type: cell-based; details: Homo sapiens, read-out: IC50 for release of TNF α (average concentration inhibiting release by 50% relative to control)
[4] = Aqueous solubility at ambient temperature; assay type: physicochemical; details: in water
Experimental: The solubilities of compounds of the invention in water at ambient temperature were measured, and compared with comparison compounds C1 and C2 (identified in Biological Example A above).

[5] = test system: adjuvant-induced arthritis; test: Adjuvant-induced arthritis model (hindpaw swelling); assay type: in vivo, male Lewis rats; details: b.i.d. days 13 to 17, Example 1 dosed at 10 mg/kg
Experimental: The activities of the compound of example 1 above and comparison compound C1 (see Biological Example A above) were assessed in an adjuvant-induced arthritis model. Adjuvant arthritis was produced in male Lewis rats (Charles River) by a single intradermal injection of 0.75 mg of M. butyricum in light paraffin oil (Freunds complete adjuvant--FCA) into the base of the tail. The "secondary" lesion occurs after a delay of 10 days, and is characterised by inflammation of the […] volumes were measured plethysmographically by water displacement. The test compound was dosed b.i.d. from days 13 to 17. Paw volume on day 20 was measured and compared to that on day 13. The experiment was terminated on day 23.

[6] = test system: HOSP1.P mammary carcinoma cells; test: Lung colonisation assay, rat mammary carcinoma model; assay type: in vivo
Experimental: The compound of example 1 above was tested for activity in vivo in a rat mammary carcinoma model. A lung colonisation assay was performed in order to determine whether the compound of example 1 above is effective in inhibiting lung colonisation by circulating HOSP1.P mammary carcinoma cells after oral administration.
HOSP1.P cells (1×10^5 cells/animal) were administered to two groups of 12 rats by injection into the jugular vein. The product of example 1 was administered p.o. to one group at 30 mg/kg at -4, +1, +6, +24 and +72 hours relative to tumor cell inoculation at 0 hours. The second (control) group received only vehicle (p.o.) by the same schedule. Animals were killed after 34 days. Lungs were removed and individual tumors counted after 24 hours fixation in Methacarn. […] (p<0.01, Mann-Whitney, two tailed).

collagenase [7] = biological target: T2, collagenase (Homo sapiens, UniProt P03956); test: biochemical
T2 sequence (P03956 100-469): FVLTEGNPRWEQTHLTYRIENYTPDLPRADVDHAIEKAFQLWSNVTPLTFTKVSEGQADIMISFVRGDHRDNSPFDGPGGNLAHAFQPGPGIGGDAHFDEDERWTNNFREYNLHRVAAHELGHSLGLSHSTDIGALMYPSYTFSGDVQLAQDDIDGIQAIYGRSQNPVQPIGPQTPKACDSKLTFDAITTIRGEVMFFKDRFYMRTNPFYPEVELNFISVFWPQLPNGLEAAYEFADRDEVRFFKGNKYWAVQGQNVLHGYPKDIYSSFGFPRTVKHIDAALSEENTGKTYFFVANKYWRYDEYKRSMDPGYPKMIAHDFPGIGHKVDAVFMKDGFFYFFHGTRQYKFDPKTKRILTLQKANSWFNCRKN
From the text: (§4) The samples were centrifuged to sediment undigested collagen, and an aliquot of the radioactive supernatant removed for assay on a scintillation counter as a measure of hydrolysis.

[8] = rat, in vivo, po, 360 min
Experimental: as §2, §3

in vivo = details: rat, po
Experimental: as §2, §3

collagenase [9] = biological target: T2, collagenase; details: read-out: Collagenase IC50; 37°, 16 hours, pH 7.5
From the text: as §4

stromelysin [10] = biological target: T1, stromelysin; details: read-out: Stromelysin IC50; 37°, 16 hours, pH 7.5
From the text: as §1

[11] = U-937, U937 cells, PMA 50 nM, 18 hours, 37° C.

T1 sequence (P08254 100-477): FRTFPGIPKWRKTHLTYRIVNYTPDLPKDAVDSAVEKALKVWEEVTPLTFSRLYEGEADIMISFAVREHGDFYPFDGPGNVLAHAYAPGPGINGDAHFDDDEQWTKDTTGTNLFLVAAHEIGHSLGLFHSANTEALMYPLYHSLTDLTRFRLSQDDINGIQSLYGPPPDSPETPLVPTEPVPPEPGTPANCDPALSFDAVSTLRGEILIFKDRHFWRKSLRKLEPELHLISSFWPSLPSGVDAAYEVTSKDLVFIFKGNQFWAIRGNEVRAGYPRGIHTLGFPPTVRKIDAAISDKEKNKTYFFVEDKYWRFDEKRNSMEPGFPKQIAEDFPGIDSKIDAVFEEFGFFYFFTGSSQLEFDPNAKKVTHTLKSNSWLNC

Row | Structure (SMILES) | IC50 (stromelysin [1]) | solubility [4] | IC50 (collagenase [7]) | other results
1 | CNC(=O)[C@@H](NC(=O)[C@H](CC(C)C)[C@H](O)C(=O)NO)c1ccccc1 [Example 3, N^2-[3S-Hydroxy-4-(N-hydroxyamino)-2R-isobutylsuccinyl]-L-phenylglycine-N^1-methylamide] |  | 2340 µg/mL (≈ 6660 µM) | 100 nM | 
2 | CNC(=O)[C@H](Cc1ccc(-c2ccccc2)cc1)NC(=O)[C@H](CC(C)C)[C@H](O)C(=O)NO [Example 4, N^2-[3S-Hydroxy-4-(N-hydroxyamino)-2R-isobutylsuccinyl]-L-(4-phenyl)-phenylalanine-N^1-methylamide] |  | 110 µg/mL (≈ 249 µM) |  | 
3 | CNC(=O)[C@H](Cn1cccn1)NC(=O)[C@H](CC(C)C)[C@H](O)C(=O)NO [Example 6, N^2-[3S-Hydroxy-4-(N-hydroxyamino)-2R-isobutylsuccinyl]-L-3-(1-pyrazolyl)alanine-N^1-methylamide] | 3000 nM | 330 µg/mL (≈ 929 µM) | 30 nM | 
4 | CNC(=O)[C@H](CCC(=O)NO)NC(=O)[C@H](CC(C)C)[C@H](O)C(=O)NO [Example 7, N^2-[3S-Hydroxy-4-(N-hydroxyamino)-2R-isobutylsuccinyl]-L-4-(N-hydroxyamino)glutamic acid-N^1-methylamide] | 500 nM | 180 µg/mL (≈ 497 µM) | 150 nM | 
5 | CNC(=O)[C@@H](NC(=O)[C@H](CC(C)C)[C@H](O)C(=O)NO)C(C)(C)C [Example 10, N^2-[3S-Hydroxy-4-(N-hydroxyamino)-2R-isobutylsuccinyl]-L-tert-leucine-N^1-methylamide] |  | 1400 µg/mL (≈ 4220 µM) |  | IC50 ([3]; U-937, 18 h): < 50000 nM; AUC (0-6 h) in number of IC50's × hours [8]: 190 n IC50 's × h; AUC(0-t) at 6 h (in vivo): 343 ng·h/mL; Tmax (in vivo): 30 min

The next lines start with results.

Row | IC50 (stromelysin [1]) | solubility [4] | IC50 (collagenase [7]) | Structure (SMILES) | other results
6 | 60 nM | 100 µg/mL (≈ 269 µM) |  | CNC(=O)[C@H](CC1CCCCC1)NC(=O)[C@H](CC(C)C)[C@H](O)C(=O)NO [Example 1, N^2-[3S-Hydroxy-4-(N-hydroxyamino)-2R-isobutylsuccinyl]-L-cyclohexyl alanine-N^1 methylamide] | AUC (0-6 h) in number of IC50's × hours [2]: 46.2 n IC50 's × h; AUC(0-t) at 6 h [2]: 143 ng·h/mL; Tmax [2]: 30 min; IC50 [3, 11]: < 50000 nM; reduction in swelling relative to control (paw volume day 20 vs day 13) [5]: statistically significant (p<0.01) reduction in swelling relative to control; Lung Colony Number, Mean ([6]; 30 mg/kg p.o. at -4, +1, +6, +24, +72 hours, 34 days, control mean 70.50): 38.91; Lung Colony Number, Median ([6]; 30 mg/kg p.o. at -4, +1, +6, +24, +72 hours, 34 days, control median 71.50, p <0.01): 38.50; extrapulmonary tumors ([6]; 30 mg/kg p.o., 34 days): No extrapulmonary tumors were found; inhibition of lung colonisation relative to control group ([6]; 30 mg/kg p.o., p<0.01, Mann-Whitney, two tailed): significant inhibition of lung colonisation relative to the control group
7 | 200 nM | 13100 µg/mL (≈ 29900 µM) | 30 nM | CNC(=O)[C@H](Cc1ccc(OCC(=O)O)cc1)NC(=O)[C@H](CC(C)C)[C@H](O)C(=O)NO [Example 2, N^2-[3S-Hydroxy-4-(N-hydroxyamino)-2R-isobutylsuccinyl]-L-(4-oxymethylcarboxy) phenylalanine-N^1-methylamide] | IC50 [3, 11]: < 50000 nM
8 |  | 140 µg/mL (≈ 350 µM) | 20 nM | CC(C)C[C@@H](C(=O)NC1CCCCCCCCCCNC1=O)[C@H](O)C(=O)NO (stereo partly drawn) [Example 5, N^3-[3S-Hydroxy-4-(N-hydroxyamino)-2R-isobutylsuccinyl]amino-1-azacyclotridecan-2-one] | IC50 [3, 11]: < 50000 nM
9 | 100 nM |  | 10 nM | CNC(=O)[C@H](Cc1cccs1)NC(=O)[C@H](CC(C)C)[C@H](O)C(=O)NO [Example 8, N^2-[3S-Hydroxy-4-(N-hydroxyamino)-2R-isobutylsuccinyl]-L-3-(2-thienyl)alanine-N^1-methylamide] | 
10 |  | 1800 µg/mL (≈ 3730 µM) | 30 nM | CC(C)C[C@@H](C(=O)N[C@@H](CC1CCCCC1)C(=O)NCCCN1CCCC1=O)[C@H](O)C(=O)NO [Example 9, N^2-[3S-Hydroxy-4-(N-hydroxyamino)-2R-isobutylsuccinyl]-L-cyclohexyl alanine-N^1-(3-(2-pyrrolidone)propyl)amide] | 
11 | 300 nM | 300 µg/mL (≈ 747 µM) | 15 nM | CCOC(=O)[C@H](C)NC(=O)[C@H](CC(C)C)NC(=O)[C@@H](CC(=O)NO)CC(C)C [Example C1, reference compound] | AUC (0-6 h) in number of IC50's × hours [2]: 7.4 n IC50 's × h; AUC(0-t) at 6 h [2]: 91.7 ng·h/mL; Tmax [2]: 30 min; reduction in swelling relative to control (paw volume day 20 vs day 13) [5]: no effect
12 |  | < 100 µg/mL |  | CCOC(=O)CNC(=O)[C@H](CC(C)C)NC(=O)[C@H](CC(C)C)[C@H](CCCCN1C(=O)c2ccccc2C1=O)C(=O)NO [Example C2] | AUC (0-6 h) in number of IC50's × hours [2]: 2.12 n IC50 's × h; AUC(0-t) at 6 h [2]: 5.3 ng·h/mL; Tmax [2]: 60 min; IC50 (collagenase [9]): 7 nM; IC50 (stromelysin [10]): 70 nM
